According to patent publication US11220482B2, “Aminopyridinemethanol compounds and their use” (UNIVERSITE AMIENS PICARDIE JULES VERNE, priority 2017, dated 2022):
Like-named read-outs stand apart in the source and are kept apart here.

What was measured:
[1] = test system: P. falciparum D6, W2 and 3D7 strains; settings: cited from earlier work
[2] = test system: S. typhimurium TA100
[3] = test system: Plasmodium falciparum W2; test: Plasmodium falciparum susceptibility assay, first round (SYBR Green I); format: cell-based; settings: W2, first round, 48-h incubation, strain resistant to CQ, sensitive to MQ, read-out: IC50 (nM) Plasmodium falciparum W2 (converted)
[4] = test system: S. typhimurium TA98; test: Bacterial reverse mutation assay (Ames test)
[5] = test system: CHO-K1 cells; test: In vitro micronucleus assay, short-term exposure
Summary of the method: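 Micronuclei were scored in 1000 binucleated cells per well in duplicate wells. Cytostasis came from CBPI over 500 cells. Doses were compared with the negative control by χ2.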

[6] = test system: Plasmodium falciparum 3D7; test: Plasmodium falciparum susceptibility assay, first round (SYBR Green I); format: cell-based; settings: 3D7, first round, 48-h incubation, strain susceptible to CQ, decreased susceptibility to MQ, read-out: IC50 (nM) Plasmodium falciparum 3D7 (converted)
[7] = test system: S. typhimurium TA97a
[8] = test system: CHO-K1 cells; settings: Chinese hamster, 24 h
Experimental: All the assays were conducted in duplicate. The CHO-K1 cells, suspended in Mac Coy's 5A medium, were transferred into Labteck wells at a concentration of 100,000 cells/mL, and incubated for 24 hours at 37° C. in CO2 (5%).
The test was performed without metabolic activation: the test substances were added into cell cultures at concentrations previously defined. […] After 24 hours of incubation at 37° C. in CO2 (5%), the culture medium was removed, the cells were rinsed with phosphate buffered saline (PBS), and then returned in culture medium containing […] of cytochalasine B. After a 24-hour incubation period at 37° C., cells were rinsed with phosphate buffered saline (PBS), fixed with methanol and stained with 10% Giemsa for 20 minutes.
The analysis of results was performed under a microscope at ×1000 magnification. The antiproliferative activity of test substances was estimated by counting the number of binucleated cells relative to the number of mononucleated cells on a total of 500 cells for each dose (250 cells counted per well). The proliferation index (Cytokinesis Blocked Proliferative Index CBPI) was calculated using the following formula:
The cytostasis index (CI %), i.e. the percentage of cell replication inhibition, was calculated using the following formula: CI %−100−{100×(CBPItest material−1)/(CBPIsolvent control−1)}
The rates of micronuclei were evaluated for the presence of independent nuclear core entities in 1000 binucleated cells per well, which corresponds to 2000 cells examined by test substance dose. Micronuclei were identified as small nuclei well differentiated from cell nucleus, stained in the same manner and having a diameter less than one third of that of the cell nucleus.
Micronuclei rates obtained for different doses of test substances were compared to the negative control by a χ2 test. The assay was considered positive if: • A dose-response relationship was obtained between the rate of micronuclei and the doses tested, • At least one of these doses induced a statistically significant increase (P<0.05) in the number of micronucleated cells as compared to the negative control.

[9] = test system: S. typhimurium TA1535
[10] = test system: Salmonella strains; test: Bacterial reverse mutation assay (Ames test), overall conclusion; format: cell-based, S. typhimurium; settings: all tested doses, absence or presence of the metabolizing mixture
Experimental: Five strains of S. typhimurium were used. […] An additional strain has been chosen to detect cross-linking mutagens, hydrazines and oxidative agents: TA102, which have an AT base pair at the primary reversion site. Salmonella tester strains were gifts from Prof. B. N. Ames (Berkeley, Calif., USA). They were stored at −80° C. and regularly checked for genetic markers.
Few crystals of the frozen working strains were taken with a sterile pipette, and seeded in 10 mL of nutrient broth (NB No 2, Oxoid). Strains were grown overnight at 37° C. with shaking in Nutrient Broth No. 2, with ampicillin (25 μg/mL) for TA1535, TA97a, TA98, and TA 100, or ampicillin (25 μg/mL) plus tetracyclin (2 μg/mL) for TA 102. At the end of the incubation period, 0.1 mL of each overnight culture was mixed to 0.1 mL S9 Mix or 0.1 mL phosphate-buffered saline (PBS, pH 7.4) in 5 mL plastic tubes and various volumes of the tested samples were added to the mixtures. Each experiment included triplicate plates of four tested doses. A solvent (DMSO, 10 μL) control was added to determine the spontaneous frequency of revertants (quadruple plates). Five positive controls were also included to ensure the performance of the tester strains and the S9 Mix. […] After hardening, the plates were incubated at 37° C. for 48 hours.
At the end of the incubation period, revertants were counted with a laser colony counter equipped with a bacterial enumeration program (Spiral System Instrument Inc., Bethesda, Md., USA).
The Dunnett test was performed to determine a significant difference between the mean number of induced revertants and the mean number of spontaneous revertants.

[11] = test system: S. typhimurium TA102
[12] = test system: P. falciparum W2; test: P. falciparum growth inhibition assay, second round (SYBR Green I, ICEstimator); format: cell-based; settings: Plasmodium falciparum, 48 h
[13] = test system: P. falciparum 3D7; test: as above; format: cell-based, Plasmodium falciparum; settings: Plasmodium falciparum, 3D7, 48 h

O[C@H](c1cc(C(F)(F)F)nc2c(C(F)(F)F)cccc12)[C@@H]1CCCCN1 [(+)-mefloquine]
factor by which more active than the other mefloquine isomer [1]: 1.6-1.8

CCCCCNC[C@@H](O)c1ccc(-c2ccc(C(F)(F)F)cc2)nc1C(F)(F)F [Compound 30c, (S)-2-(Pentylamino)-1-(2-(trifluoromethyl)-6-(4-(trifluoromethyl)phenyl)pyridin-3-yl)ethanol]
Number of revertants by plate (Means ± SD), TA100 ([2]; with S9 mix, 0.4 μg/plate): 202 ± 8^NS
Number of revertants by plate (Means ± SD), TA100 ([2]; with S9 mix, 0.6 μg/plate): 183 ± 12^NS
Number of revertants by plate (Means ± SD), TA100 ([2]; with S9 mix, 0.8 μg/plate): 178 ± 11^NS
Number of revertants by plate (Means ± SD), TA100 ([2]; with S9 mix, 1 μg/plate): 168 ± 12^NS
Number of revertants by plate (Means ± SD), TA100 ([2]; without S9 mix, 0.4 μg/plate): 197 ± 6^NS
Number of revertants by plate (Means ± SD), TA100 ([2]; without S9 mix, 0.6 μg/plate): 201 ± 9^NS
Number of revertants by plate (Means ± SD), TA100 ([2]; without S9 mix, 0.8 μg/plate): 211 ± 12^NS
Number of revertants by plate (Means ± SD), TA100 ([2]; without S9 mix, 1 μg/plate): 206 ± 14^NS
IC50 [3]: 24.4 nM
Number of revertants by plate (Means ± SD), TA98 ([4]; with S9 mix, 0.4 μg/plate): 34 ± 6^NS
Number of revertants by plate (Means ± SD), TA98 ([4]; with S9 mix, 0.6 μg/plate): 38 ± 5^NS
Number of revertants by plate (Means ± SD), TA98 ([4]; with S9 mix, 0.8 μg/plate): 28 ± 4^NS
Number of revertants by plate (Means ± SD), TA98 ([4]; with S9 mix, 1 μg/plate): 26 ± 6^NS
Number of revertants by plate (Means ± SD), TA98 ([4]; without S9 mix, 0.4 μg/plate): 35 ± 3^NS
Number of revertants by plate (Means ± SD), TA98 ([4]; without S9 mix, 0.6 μg/plate): 33 ± 2^NS
Number of revertants by plate (Means ± SD), TA98 ([4]; without S9 mix, 0.8 μg/plate): 34 ± 5^NS
Number of revertants by plate (Means ± SD), TA98 ([4]; without S9 mix, 1 μg/plate): 32 ± 6^NS
in vitro micronucleus assay result (clastogenic and/or aneugenic activities) [5]: negative results
IC50 [6]: 232 ± 17 nM
Number of revertants by plate (Means ± SD), TA97a ([7]; with S9 mix, 0.4 μg/plate): 128 ± 10^NS
Number of revertants by plate (Means ± SD), TA97a ([7]; with S9 mix, 0.6 μg/plate): 134 ± 8^NS
Number of revertants by plate (Means ± SD), TA97a ([7]; with S9 mix, 0.8 μg/plate): 137 ± 11^NS
Number of revertants by plate (Means ± SD), TA97a ([7]; with S9 mix, 1 μg/plate): 125 ± 8^NS
Number of revertants by plate (Means ± SD), TA97a ([7]; without S9 mix, 0.4 μg/plate): 148 ± 8^NS
Number of revertants by plate (Means ± SD), TA97a ([7]; without S9 mix, 0.6 μg/plate): 155 ± 6^NS
Number of revertants by plate (Means ± SD), TA97a ([7]; without S9 mix, 0.8 μg/plate): 159 ± 8^NS
Number of revertants by plate (Means ± SD), TA97a ([7]; without S9 mix, 1 μg/plate): 138 ± 8^NS
BI (binucleated cells) ([8]; 5 μM): 432
CBPI (Cytokinesis-Blocked Proliferative Index) ([8]; 5 μM): 1.86
CI % (cytostasis index) ([8]; 5 μM): 5%
MNC1 (micronucleated cell rate) ([8]; 5 μM): 8 ‰
MNC2 (micronucleated cell rate) ([8]; 5 μM): 12 ‰
MNC-M (mean of micronucleated cell rates) ([8]; 5 μM): 10 ± 2.8 ‰
MONO (mononucleated cells) ([8]; 5 μM): 68
BI (binucleated cells) ([8]; 10 μM): 331
CBPI (Cytokinesis-Blocked Proliferative Index) ([8]; 10 μM): 1.66
CI % (cytostasis index) ([8]; 10 μM): 27%
MNC1 (micronucleated cell rate) ([8]; 10 μM): 9 ‰
MNC2 (micronucleated cell rate) ([8]; 10 μM): 11 ‰
MNC-M (mean of micronucleated cell rates) ([8]; 10 μM): 10 ± 1.4 ‰
MONO (mononucleated cells) ([8]; 10 μM): 169
BI (binucleated cells) ([8]; 50 μM): 218
CBPI (Cytokinesis-Blocked Proliferative Index) ([8]; 50 μM): 1.42
CI % (cytostasis index) ([8]; 50 μM): 52%
MNC1 (micronucleated cell rate) ([8]; 50 μM): 10 ‰
MNC2 (micronucleated cell rate) ([8]; 50 μM): 12 ‰
MNC-M (mean of micronucleated cell rates) ([8]; 50 μM): 11 ± 1.4 ‰
MONO (mononucleated cells) ([8]; 50 μM): 282
Number of revertants by plate (Means ± SD), TA1535 ([9]; with S9 mix, 0.4 μg/plate): 22 ± 5^NS
Number of revertants by plate (Means ± SD), TA1535 ([9]; with S9 mix, 0.6 μg/plate): 26 ± 6^NS
Number of revertants by plate (Means ± SD), TA1535 ([9]; with S9 mix, 0.8 μg/plate): 25 ± 8^NS
Number of revertants by plate (Means ± SD), TA1535 ([9]; with S9 mix, 1 μg/plate): 26 ± 7^NS
Number of revertants by plate (Means ± SD), TA1535 ([9]; without S9 mix, 0.4 μg/plate): 26 ± 3^NS
Number of revertants by plate (Means ± SD), TA1535 ([9]; without S9 mix, 0.6 μg/plate): 25 ± 4^NS
Number of revertants by plate (Means ± SD), TA1535 ([9]; without S9 mix, 0.8 μg/plate): 28 ± 8^NS
Number of revertants by plate (Means ± SD), TA1535 ([9]; without S9 mix, 1 μg/plate): 25 ± 6^NS
mutagenic activity in Salmonella strains (revertant rates) [10]: No significant increase in revertant rates
Number of revertants by plate (Means ± SD), TA102 ([11]; with S9 mix, 0.4 μg/plate): 346 ± 8^NS
Number of revertants by plate (Means ± SD), TA102 ([11]; with S9 mix, 0.6 μg/plate): 349 ± 12^NS
Number of revertants by plate (Means ± SD), TA102 ([11]; with S9 mix, 0.8 μg/plate): 368 ± 11^NS
Number of revertants by plate (Means ± SD), TA102 ([11]; with S9 mix, 1 μg/plate): 359 ± 6^NS
Number of revertants by plate (Means ± SD), TA102 ([11]; without S9 mix, 0.4 μg/plate): 298 ± 21^NS
Number of revertants by plate (Means ± SD), TA102 ([11]; without S9 mix, 0.6 μg/plate): 319 ± 14^NS
Number of revertants by plate (Means ± SD), TA102 ([11]; without S9 mix, 0.8 μg/plate): 331 ± 17^NS
Number of revertants by plate (Means ± SD), TA102 ([11]; without S9 mix, 1 μg/plate): 339 ± 12^NS

O[C@H](CNCCCCCCF)c1ccc(-c2ccc(C(F)(F)F)cc2)nc1C(F)(F)F [Compound 30s]
IC50 [12]: 97.1 nM
IC50 [13]: 421 nM

O[C@@H](CNCCCCCCF)c1ccc(-c2ccc(C(F)(F)F)cc2)nc1C(F)(F)F [Compound 30t]
IC50 [12]: 181 nM
IC50 [13]: 1460 nM
